Measured values from patent publication US20080153705A1, “METHOD FOR INHIBITING DIFFERENTITATION AND FORMATION OF CONIFEROPHYTA MALE FLOWERS BY TREATMENT WITH PROHEXADIONE COMPOUNDS” (Syngenta Crop Protection, Inc., priority 2002, published 2008).

Legend:
[1] = tested on: 8-year old young Cryptomeria japonica trees; test: Foliar spray of prohexadione compound on branches of 8-year old young Cryptomeria japonica trees (Example 1); assay type: in vivo; conditions: 8-year old trees; for Branches Elongation: control group 24.6 ± 6.4; for Number of male flower clusters: 100 ml foliar spray, control group 136.9 ± 21.6
Procedure: Two 8-year old young Cryptomeria japonica trees (height: 8 m, diameter at breast height: 6 cm) which were in a nursery of an experimental plantation of the department of agriculture of Tottori University and which had formed male flowers every year were used. Three branches were selected at male flower-forming positions of each tree. These branches which were supposed to form the male flowers were treated with the prohexadione compound ([…]) on Jun. 5, 2001 (about one month before the beginning of July when Cryptomeria japonica flower buds were supposed to differentiate and Cryptomeria japonica flower buds were supposed to be formed). In this test, the prohexadione compound was diluted to a concentration shown in Table 3 given below with 60% (v/v) aqueous acetone solution.
The treatment method was as follows: 100 ml of the diluted solution obtained as described above was sprayed on leaves of the branches (50 cm long area from the branch top) with a hand sprayer In a control group, the leaves were treated with only 60% (v/v) aqueous acetone solution.
The concentrations of the prohexadione compound used for the foliar spray treatment were as follows: • Concentration (ppm) • 0.5 • 5 • 50 • 500

[2] = tested on: 43-year old Cryptomeria japonica trees; test: Aerial (helicopter curtain) application of the agent to a forest of 43-year old Cryptomeria japonica trees (Example 2); assay type: in vivo; conditions: 43-year old trees; for Number of male flower clusters: Table 6 composition (polyoxyethylene castor oil, tetrahydrofurfuryl alcohol, water), 1.8 liters per 10 a by helicopter, control group 2985.8 ± 789.1; for Shoot Elongation: Table 6 composition, control group 80.8 ± 9.4
Procedure: A Cryptomeria japonica forest having 43-year old Cryptomeria japonica trees (height: 16 m, diameter at breast height: 35 cm) was treated in Nirayama experimental plantation of the department of agriculture of Tottori University on Jun. 25, 2001.
The concentration of the agent for inhibiting the formation of Cryptomeria japonica pollen thus sprayed was 50 or 500 ppm.
1.8 liters of each of the above described two compositions was applied to the forest having an area of 10 a by the curtain application method with a helicopter. The aerial application was conducted twice, using 0.9 liter of the composition each time. In a control group, only water free from the active ingredients was used for the aerial application.

CCOC(=O)C1CC(=O)C(=C(O)C2CC2)C(=O)C1 (stereo not shown)
Branches Elongation ([1]; 0.5 ppm foliar spray): 25.5 ± 7.2 cm | Number of male flower clusters ([1]; 0.5 ppm in 60% aqueous acetone): 111.6 ± 25.2 | Elongation growth of the Cryptomeria japonica branches versus control group (in words) ([1]; 0.5 to 500 ppm): substantially unchanged | Branches Elongation ([1]; 5 ppm foliar spray): 26.2 ± 6.5 cm | Number of male flower clusters ([1]; 5 ppm in 60% aqueous acetone): 70.4 ± 12.4 | Branches Elongation ([1]; 50 ppm foliar spray): 24.3 ± 6.3 cm | Number of male flower clusters ([1]; 50 ppm in 60% aqueous acetone): 21.2 ± 6.5 | Effect of inhibiting the differentiation and formation of male Cryptomeria japonica flowers (in words) ([1]; 50 ppm or 500 ppm): remarkable | Branches Elongation ([1]; 500 ppm foliar spray): 25.2 ± 5.5 cm | Number of male flower clusters ([1]; 500 ppm in 60% aqueous acetone): 10.8 ± 6.1 | Elongation growth of the Cryptomeria japonica trees versus control group (in words) ([2]; 50 or 500 ppm, aerial application): substantially the same as that in the control group | Effect of inhibiting the differentiation and formation of the male flowers (in words) ([2]; 50 ppm or 500 ppm, aerial application): remarkable effect | Number of male flower clusters ([2]; 50 ppm): 751.3 ± 121.5 | Shoot Elongation ([2]; 50 ppm, aerial application): 83.3 ± 10.7 cm | Number of male flower clusters ([2]; 500 ppm): 124.2 ± 55.2 | Shoot Elongation ([2]; 500 ppm, aerial application): 82.8 ± 11.2 cm
